Test results: US20240246905A1 (University of Leicester, priority 2021, published 2024)
In brackets after ≈: the same amount, converted by molar mass.

Experiments:
[1] = system: C. tropicalis ATCC 450; experiment: Anti-fungal MIC (CO-ADD); type: cell-based; details: Candida tropicalis, ATCC450, read-out: MIC
Procedure: Fungal strains were cultured for 3 days on Yeast Extract-Peptone Dextrose (YPD) agar at 30° C. A yeast suspension of 1×10^6 to 5×10^6 CFU/mL (as determined by OD530) was prepared from five colonies. […] All plates were covered and incubated at 35° C. for 36 hours without shaking. […] The absorbance was measured using a Biotek Multiflo Synergy HTX plate reader. In both cases, the percentage of growth inhibition was calculated for each well, using the negative control (media only) and positive control (fungi without inhibitors) on the same plate. […] Due to a higher variance in growth and inhibition, a lower threshold was applied to the data for C. neoformans. In addition, the maximal percentage of growth inhibition is reported as DMax, indicating any compounds with marginal activity.

[2] = system: MSSA 476; experiment: Disc diffusion (Kirby-Bauer), zone of inhibition; type: cell-based, Staphylococcus aureus; details: Staphylococcus aureus, 500 μg/mL, '/' = no zone, read-out: Zone of inhibition
Method in brief: (§1)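 Zones of inhibition recorded after 24 h at 37 °C on Mueller-Hinton agar. Agar was inoculated with 1 in 200 diluted 18 h broth cultures, and discs carried 50 μL of antibiotic. Method follows CLSI 2017 disc diffusion.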

[3] = system: MRSA 252; experiment: Disc diffusion (Kirby-Bauer), zone of inhibition; type: cell-based, Staphylococcus aureus; details: Staphylococcus aureus, 500 μg/mL, '/' = no zone, read-out: Zone of inhibition
Method in brief: as §1

[4] = system: various Staphylococcus aureus strains; experiment: Disc diffusion, Staphylococcus aureus strain study; type: cell-based; details: Staphylococcus aureus, 500 μg/mL
Excerpt: At this point in the study it was decided to perform a disc diffusion assay study on 50 S. aureus strains. […] Moreover, by employing a range of mutant strains of S. aureus with specific gene-deletions, it was believed that if particular strains were resistant to the lead compounds, it could provide insights on the likely protein target of the lead antibiotics. However, all six of the compounds utilized in this study were able to inhibit growth of all 50 strains of S. aureus assayed at the chosen concentration of 500 μg/mL concentration (Table 5).
E. coli DH5α, P. aeruginosa PA01 and the 53 S. aureus strains were recovered from frozen (−80° C.) glycerol (15% v/v) stocks on Lysogeny agar (LA)—Gram negative and trypticase soy agar (TSA)—plates at 37° C. for 24 hours. Single colonies were placed in either 3 mL Lysogeny broth (LB)—Gram negative or trypticase soy broth (TSB)—Gram positive and incubated at 37° C., 250 rpm for 18 hours.
The antibiotic activity was determined using a Kirby-Bauer method according to Clinical Standard Laboratory Institute (CSLI) Guidelines (2017). Briefly, 180 μL of a 1 in 200 dilution (in LB or TSB) of overnight cultures of selected Gram negative and Gram positive bacteria were applied to an agar plate containing the solid growth medium, Mueller-Hinton agar (MHA). Sterile discs, inoculated with 50 μL of antibiotic, were first added to the agar plate before the plates were incubated for 24 hours at 37° C. Following incubation, the zone of inhibition (if it existed) was recorded.

[5] = system: HEK293 cells; experiment: Cytotoxicity assay, resazurin (CO-ADD)
Procedure: The cytotoxicity studies were performed by CO-ADD (The Community for Open Antimicrobial Drug Discovery), funded by the Wellcome trust (UK) and the University of Queensland, Australia.^(28) In this study, the compounds were screened against a human embryonic kidney cell line, HEK293, at a set concentration of 32 μg/mL.
DMEM supplemented with 10% FBS was used as growth media and the cells were incubated together with the compounds for 20 hours at 37° C. in 5% CO2.
Cytotoxicity (or cell viability) was measured by fluorescence, excitation: 560/10 nm, emission: 590/10 nm (F560/590), after addition of 5 μL of 25 μg/mL Resazurin (2.3 μg/mL final concentration) and after incubation for further 3 h at 37° C. in 5% CO2. The fluorescence intensity was measured using a Tecan M1000 Pro monochromator plate reader, using automatic gain calculation CC50 (concentration at 50% cytotoxicity) were calculated by curve fitting the inhibition values vs. log(concentration) using sigmoidal dose-response function, with variable fitting values for bottom, top and slope. The curve fitting was implemented using Pipeline Pilot's dose-response component.

[6] = system: Staphylococcus aureus 15981; experiment: Disc diffusion (Kirby-Bauer), zone of inhibition; type: cell-based; details: Staphylococcus aureus 15981; 500 μg/mL; '/' = no zone; read-out: Zone of inhibition
Method in brief: as §1

[7] = system: red blood cells; experiment: Hemolysis assay (CO-ADD); type: cell-based; details: 32 μg/mL highest concentration tested
Excerpt: A problem often encountered by emerging drugs is hemolysis, also known as drug-induced immune hemolytic anemia.

[8] = system: MSSA 476; experiment: MIC, broth micro-dilution; type: cell-based, Staphylococcus aureus; details: Staphylococcus aureus, MSSA, read-out: MIC
Method in brief: (§2)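 S. aureus cultures grown 18 h in TSB were used to inoculate twofold antibiotic series in TSB at 5×10^5 CFU/mL, per CLSI guidelines. Growth curves read by optical density at 12-min intervals for 18 h at 37 °C were fitted sigmoidally to calculate MIC.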

[9] = system: MRSA 252; experiment: MIC, broth micro-dilution; type: cell-based, Staphylococcus aureus; details: Staphylococcus aureus, read-out: MIC
Method in brief: as §2

Q: Which results are given for `[C-]#[N+]C=Cc1cc(Br)ccc1O` [Compound 13]?
A: MIC [1]: 4 µg/mL; zone of inhibition at 500 µg/mL [2]: 22 mm; zone of inhibition at 500 µg/mL [3]: 22 mm; zone of inhibition at 500 µg/mL ([4]; strain ASARM 61): 20 mm; zone of inhibition at 500 µg/mL ([4]; strain ASARM 70): 20 mm; zone of inhibition at 500 µg/mL ([4]; strain ASARM 71): 20 mm; zone of inhibition at 500 µg/mL ([4]; strain ASARM 72): 16 mm; zone of inhibition at 500 µg/mL ([4]; strain ASARM 73): 20 mm; zone of inhibition at 500 µg/mL ([4]; strain ASARM 75): 20 mm; zone of inhibition at 500 µg/mL ([4]; strain ASARM 76): 20 mm; zone of inhibition at 500 µg/mL ([4]; strain ASARM 77): 20 mm; zone of inhibition at 500 µg/mL ([4]; strain ASARM 79): 20 mm; zone of inhibition at 500 µg/mL ([4]; strain ASARM 80): 18 mm; zone of inhibition at 500 µg/mL ([4]; strain EOE 3): 24 mm; zone of inhibition at 500 µg/mL ([4]; strain EOE 23): 22 mm; zone of inhibition at 500 µg/mL ([4]; strain EOE 30): 22 mm; zone of inhibition at 500 µg/mL ([4]; strain EOE 35): 22 mm; zone of inhibition at 500 µg/mL ([4]; strain EOE 41): 20 mm; zone of inhibition at 500 µg/mL ([4]; strain EOE 42): 20 mm; zone of inhibition at 500 µg/mL ([4]; strain EOE 45): 24 mm; zone of inhibition at 500 µg/mL ([4]; strain EOE 52): 22 mm; zone of inhibition at 500 µg/mL ([4]; strain EOE 54): 22 mm; zone of inhibition at 500 µg/mL ([4]; strain EOE 57): 25 mm; zone of inhibition at 500 µg/mL ([4]; strain S139_7_7): 24 mm; zone of inhibition at 500 µg/mL ([4]; strain S197_1_1): 26 mm; zone of inhibition at 500 µg/mL ([4]; strain S197_1_8): 20 mm; zone of inhibition at 500 µg/mL ([4]; strain S197_1_9): 20 mm; zone of inhibition at 500 µg/mL ([4]; strain S197_1_10): 20 mm; zone of inhibition at 500 µg/mL ([4]; strain S295_1_1): 22 mm; zone of inhibition at 500 µg/mL ([4]; strain S295_1_2): 20 mm; zone of inhibition at 500 µg/mL ([4]; strain S295_1_3): 20 mm; zone of inhibition at 500 µg/mL ([4]; strain S364_5_11): 20 mm; zone of inhibition at 500 µg/mL ([4]; strain S364_5_12): 25 mm; zone of inhibition at 500 µg/mL ([4]; strain Sa_TPS 3026): 20 mm; zone of inhibition at 500 µg/mL ([4]; strain Sa_TPS 3072): 21 mm; zone of inhibition at 500 µg/mL ([4]; strain Sa_TPS 3092): 20 mm; zone of inhibition at 500 µg/mL ([4]; strain Sa_TPS 3097): 20 mm; zone of inhibition at 500 µg/mL ([4]; strain Sa_TPS 3103): 20 mm; zone of inhibition at 500 µg/mL ([4]; strain Sa_TPS 3104): 22 mm; zone of inhibition at 500 µg/mL ([4]; strain Sa_TPS 3106): 16 mm; zone of inhibition at 500 µg/mL ([4]; strain Sa_TPS 3118): 22 mm; zone of inhibition at 500 µg/mL ([4]; strain Sa_TPS 3133): 20 mm; zone of inhibition at 500 µg/mL ([4]; strain Sa_TPS 3134): 18 mm; zone of inhibition at 500 µg/mL ([4]; strain USFL 008): 18 mm; zone of inhibition at 500 µg/mL ([4]; strain USFL 009): 22 mm; zone of inhibition at 500 µg/mL ([4]; strain USFL 012): 22 mm; zone of inhibition at 500 µg/mL ([4]; strain USFL 016): 20 mm; zone of inhibition at 500 µg/mL ([4]; strain USFL 018): 20 mm; zone of inhibition at 500 µg/mL ([4]; strain USFL 020): 20 mm; zone of inhibition at 500 µg/mL ([4]; strain USFL 021): 22 mm; zone of inhibition at 500 µg/mL ([4]; strain USFL 028): 22 mm; zone of inhibition at 500 µg/mL ([4]; strain USFL 035): 22 mm; zone of inhibition at 500 µg/mL ([4]; strain USFL 054): 22 mm; Concentration toxic to HEK 293 cells ([5]; HEK 293): >32000 ng/mL; toxicity towards the HEK293 cell line (in words) ([5]; set concentration of 32 μg/mL): no toxicity; zone of inhibition at 500 µg/mL [6]: 18 mm; Hemolytic activity (HC10) [7]: >32 µg/mL; MIC [8]: 145 µg/mL (≈ 647 µM); MIC [9]: 35 µg/mL (≈ 156 µM)
